According to patent publication US4202802A, “Peptides related to somatostatin” (Eli Lilly and Company, priority 1978, dated 1980):
Values joined by “and” are separate entries in the source; they are usually repeats but may differ in a detail not shown here. Equal values may be shown once. Bridge positions count the residues as written; N and C are the ends. Square brackets hold non-standard residues; d marks the D form. Peptide text beside a SMILES is read from it.

Columns and labels:
serum insulin = assay: Insulin Inhibition In Dogs (I.V. infusion of test compound with L-alanine infusion, serum insulin by radioimmunoassay); format: in vivo, dog; conditions: for inhibition of insulin concentration: fasted dog, I.V. infusion, doses: Example 4 0.147, Example 7 0.182, Example 10 0.247 μg/kg/min, Example 14 0.092, 0.126, 0.128, 0.198 μg/kg/min and 0.305 mg/kg/min
Method: (§1) A normal dog is fasted overnight. An intravenous (I.V.) infusion of the test compound (dissolved in saline) is begun. Thirty minutes thereafter an additional infusion of L-alanine (dissolved in saline) is begun and is continued for a total of 15 minutes so that a total dose of about 1 mmole of L-alanine per kg. body weight is given. Infusion of the test compound is continued for an additional 15 minute period.
(§2) Blood samples are taken periodically before (at -20, -10 and -1 minutes) and after (5, 10, 15, 30, 35, 40, 45, 50, 60, 90, 120 and 150 minutes) the start of the infusion of the test compound. The serum insulin and serum glucagon concentrations in the blood are determined by radioimmunoassay. A plot is made of the glucagon and insulin concentrations versus time. The plot obtained from the test compound is compared to plots obtained from somatostatin and saline (controls) in similar experiments.
(§3) Infusion of L-alanine (in the absence of somatostatin or active test compound) causes an abrupt increase in serum insulin and glucagon concentrations. The concentrations return to basal levels after the L-alanine infusion is terminated. Infusion of somalostatin (alone) causes a decrease in basal serum concentrations of insulin and glucagon.

serum glucagon = assay: Glucagon Inhibition In Dogs (I.V. infusion of test compound with L-alanine infusion, serum glucagon by radioimmunoassay); format: in vivo, dog; conditions: for inhibition of glucagon concentration: fasted dog, I.V. infusion, doses: Example 4 0.147, Example 7 0.182, Example 10 0.247 μg/kg/min, Example 14 0.092, 0.126, 0.128, 0.198 μg/kg/min and 0.305 mg/kg/min
Method: as §1, §2, §3

[1] = system: growth hormone (GH) secretion; assay: Growth Hormone Inhibition In Rats (pentobarbital-stimulated GH secretion, serum GH by radioimmunoassay); format: in vivo; conditions: male rats, peptide S.C.; for Serum Growth Hormone Conc. Mean ± SEM: pentobarbital 4 mg/rat I.P.
Method: This test is a modification of the method of P. Brazeau et al. Endocrinology, 94, 184 (1974). Male rats (weighing 100-110 g.) are divided into three groups of eight rats each. Each rat is administered sodium pentobarbital at a dose of 4 mg/rat (I.P.) to stimulate growth hormone (GH) secretion. Simultaneously, one group of rats receives the test compound (S.C.); the second group receives somatostatin (S.C.); and the third group (control) receives saline (S.C.). Twenty-minutes later, the animals are decapitated and blood samples are collected. The serum concentration of growth hormone (GH) is determined by radioimmunoassay. The mean GH concentration (±standard error of the mean) is calculated for each group. The percent inhibition of GH release (as compared to saline controls) is then calculated for the test compound and for somatostatin. When tested as above-described, the peptides of Example 4, 7, 10, and 14, representative of the peptides of Formula III, gave the results set forth below in Table I: […]

[2] = Dose (mg/kg) 2, 20 min after dosing
[3] = Dose (mg/kg) 50, 20 min after dosing
[4] = dog, in the presence of L-alanine
[5] = dog, infusion alone (no L-alanine)

| SMILES | inhibition of insulin concentration (serum insulin) | inhibition of glucagon concentration (serum glucagon) | Serum Growth Hormone Conc. Mean ± SEM [1, 2] [ng/mL] | Serum Growth Hormone Conc. Mean ± SEM [1, 3] [ng/mL] | % Inhibition of GH release (as compared to saline controls) ([1]; Dose (mg/kg) 2) [%] | % Inhibition of GH release (as compared to saline controls) ([1]; Dose (mg/kg) 50) | effect on the increase in insulin concentration induced by L-alanine (serum insulin; [4]) | effect on basal serum concentration of insulin (serum insulin; [5]) | effect on the increase in glucagon concentration induced by L-alanine (serum glucagon; [4]) | effect on basal serum concentration of glucagon (serum glucagon; [5]) |
| --- | --- | --- | --- | --- | --- | --- | --- | --- | --- | --- |
| CC(C)[C@@H](N)C(=O)NCC(=O)N[C@H]1CSSC[C@@H](C(=O)O)NC(=O)[C@H](CO)NC(=O)[C@H]([C@@H](C)O)NC(=O)[C@@H](Cc2ccccc2)NC(=O)[C@H]([C@@H](C)O)NC(=O)[C@H](CCCCN)NC(=O)[C@@H](Cc2c[nH]c3ccccc23)NC(=O)[C@H](Cc2ccccc2)NC(=O)[C@@H](Cc2ccccc2)NC(=O)[C@H](C)NC(=O)[C@H](CCCCN)NC1=O [Example 4, D-Valyl-L-glycyl-L-cysteinyl-L-lysyl-L-alanyl-D-phenylalanyl-L-phenylalanyl-D-tryptophyl-L-lysyl-L-threonyl-D-phenyl-alanyl-L-threonyl-L-seryl-L-cysteine cyclic (3->14) disulfide] (H-[dV]GCKA[dF]F[dW]KT[dF]TSC-OH; disulfide 3-14) | no significant inhibition | no significant inhibition | 72.1 ± 27.3 | 31.9 ± 16.6 | 27.9 | 68.1% |  |  |  |  |
| CC(C)[C@@H](N)C(=O)NCC(=O)N[C@H]1CSSC[C@@H](C(=O)O)NC(=O)[C@H](CO)NC(=O)[C@H]([C@@H](C)O)NC(=O)[C@@H](Cc2ccccc2)NC(=O)[C@H]([C@@H](C)O)NC(=O)[C@H](CCCCN)NC(=O)[C@@H](Cc2c[nH]c3ccccc23)NC(=O)[C@H](Cc2ccccc2)NC(=O)[C@H](Cc2ccccc2)NC(=O)[C@H](C)NC(=O)[C@H](CCCCN)NC1=O [Example 7, D-Valyl-L-glycyl-L-cysteinyl-L-lysyl-L-alanyl-L-phenylalanyl-L-phenylalanyl-D-tryptophyl-L-lysyl-L-threonyl-D-phenyl-alanyl-L-threonyl-L-seryl-L-cysteine cyclic (3->14) disulfide] (H-[dV]GCKAFF[dW]KT[dF]TSC-OH; disulfide 3-14) | no significant inhibition | no significant inhibition | 94.7 ± 22 | 38.7 | 45.9 | 77.5% |  |  |  |  |
| CC(C)C[C@@H]1NC(=O)[C@H](C)NC(=O)[C@H](CCCCN)NC(=O)[C@@H](NC(=O)CNC(=O)[C@H](N)C(C)C)CSSC[C@@H](C(=O)O)NC(=O)[C@H](CO)NC(=O)[C@H]([C@@H](C)O)NC(=O)[C@@H](Cc2ccccc2)NC(=O)[C@H]([C@@H](C)O)NC(=O)[C@H](CCCCN)NC(=O)[C@@H](Cc2c[nH]c3ccccc23)NC(=O)[C@H](Cc2ccccc2)NC1=O [Example 10, D-Valyl-L-glycyl-L-cysteinyl-L-lysyl-L-alanyl-L-leucyl-L-phenylalanyl-D-tryptophyl-L-lysyl-L-threonyl-D-phenylalanyl-L-threonyl-L-seryl-L-cysteine cyclic (3->14) disulfide] (H-[dV]GCKALF[dW]KT[dF]TSC-OH; disulfide 3-14) | no significant inhibition | no significant inhibition | 82.8 ± 19.6 | 93.5 ± 22.6 | 37.3 | 29.3% |  |  |  |  |
| C[C@H](N)C(=O)N[C@H](C)C(=O)N[C@H]1CSSC[C@@H](C(=O)O)NC(=O)[C@H](CO)NC(=O)[C@H]([C@@H](C)O)NC(=O)[C@@H](Cc2ccccc2)NC(=O)[C@H]([C@@H](C)O)NC(=O)[C@H](CCCCN)NC(=O)[C@@H](Cc2c[nH]c3ccccc23)NC(=O)[C@H](Cc2ccccc2)NC(=O)[C@H](Cc2ccccc2)NC(=O)[C@H](C)NC(=O)[C@H](CCCCN)NC1=O [Example 14, L-Alanyl-D-alanyl-L-cysteinyl-L-lysyl-L-alanyl-L-phenylalanyl-L-phenylalanyl-D-tryptophyl-L-lysyl-L-threonyl-D-phenylalanyl-L-threonyl-L-seryl-L-cysteine cyclic (3->14) disulfide] (H-A[dA]CKAFF[dW]KT[dF]TSC-OH; disulfide 3-14) | no significant inhibition | no significant inhibition | 132 ± 69.4 | 77.8 ± 19.6 | 20 | 53% |  |  |  |  |
| C[C@H](N)C(=O)NCC(=O)N[C@H]1CSSC[C@@H](C(=O)O)NC(=O)[C@H](CO)NC(=O)[C@H]([C@@H](C)O)NC(=O)[C@H](Cc2ccccc2)NC(=O)[C@H]([C@@H](C)O)NC(=O)[C@H](CCCCN)NC(=O)[C@H](Cc2c[nH]c3ccccc23)NC(=O)[C@H](Cc2ccccc2)NC(=O)[C@H](Cc2ccccc2)NC(=O)[C@H](CC(N)=O)NC(=O)[C@H](CCCCN)NC1=O [Somatostatin] |  |  |  |  | 0 | 86.6% and 84.9% and 89.7% and 93% | inhibits the increase | decrease | inhibits the increase | decrease |
